Test results: article PMC7053711, “A G protein–coupled receptor mediates neuropeptide-induced oocyte maturation in the jellyfish Clytia” (PLoS Biology, 2020)
“Also recorded” adds a separate entry of the source. Peptide text beside a SMILES is read from it.

Assays:
[1] = test system: MIHR mutant (n5-23, n5-13) isolated female gonads; experiment: Gonad spawning assay, MIHR mutant isolated gonads; set-up: species or system Clytia hemisphaerica; conditions: for Gonads spawning (number) / Percentage of spawning gonads: 0,1uM WPRPa, MIH R K.O.
Experimental: We performed a series of oocyte maturation and spawning assays, comparing the responses of wild-type and MIHR mutant isolated gonads and oocytes to different stimuli (Fig 4).
Sexually mature MIHR mutant medusae from colonies n5-13 and n5-23 and wild-type medusae were cultured on the same day–night cycle. Individual gonads were dissected in the evening after afternoon spawning. To test the light response, one group of each was transferred to 100 μL MFSW in wells of 96-well plastic plates, covered overnight, and re-exposed to white light the following day. To test responses to MIH and cAMP, other groups of dissected gonads were cultured overnight in constant light, then transferred to 96-well plastic plates for two hours. MIH was added to wells as an equal volume of 200 nM WPRPamide (GenScript) stock in MFSW was added to give a final concentration of 100 nM. Alternatively, a stock of 20 mM bromo adenosine 3′,5′cyclic monophosphate (Br-cAMP–Fluka; Sigma Aldrich) in distilled water was added to give a final concentration of 4 mM. Gonads were washed after 5 minutes incubation in Br-cAMP. Oocyte maturation was scored after 30 minutes as germinal vesicle breakdown (GVBD), i.e., visible dissolution of the oocyte nuclear membrane upon entry into M phase, which in all cases was followed by spawning about 1 hour later.
(§1) Supplementary file pbio.3000614.s013.xlsx: S3 Data Numerical data corresponding to Fig 4A and 4C. The first tab collects all the raw data from 3 independent gonad spawning assays. Information corresponding to the Fisher exact tests is also shown. […] The means and standard deviations were used to prepare the graph in Fig 4C. Information corresponding to the Fisher exact tests is also shown. (XLSX) Click here for additional data file.

[2] = test system: fully grown oocytes isolated from WT gonads; experiment: Oocyte maturation assay, wild-type isolated oocytes (GVBD); type: cell-based, Clytia hemisphaerica; conditions: for Oocyte maturation (number) / Percentage of Oocytes maturing: 0,1uM WPRPa, wild type
Excerpt: (§2) Fig 4 Oocyte maturation failure in MIHR mutant medusae. Oocyte maturation assays performed using isolated gonads (A, B) or isolated oocytes (C) from MIHR mutant jellyfish compared to WT. In A and C, bar heights represent mean percentages of 3 independent experiments and error bars show standard deviations. Total gonad or oocyte numbers for each treatment are indicated in gray. (A) Spawning response of isolated gonads from WT and n5-23 female medusae. Three treatments were compared as indicated above each panel: Light: light stimulation after incubation in the dark; MIH: treatment of light-maintained gonads with 100 nM WPRPamide; cAMP: treatment of light-maintained gonads with 4 mM Br-cAMP. […] Full datasets from three independent experiments are available in S3 Data. (B) Light microscope images illustrating gonads from an equivalent experiment performed with n5-13 female MIHR mutant medusae 120 minutes after the indicated treatments. Scale bar: 500 μm. […] Full datasets from 3 independent experiments are available in S3 Data. Br-cAMP, bromoadenosine 3′,5′-cyclic monophosphate; cAMP, cyclic adenosine monophosphate; KO, knockout; MIH, maturation-inducing hormone; MIHR, MIH receptor; WT, wild-type.
(§3) Fully grown oocytes were isolated manually from dissected gonads of wild-type and MIHR KO mutant jellyfish prepared as above. Maturation assays were performed in wells of 96-well plates or small plastic petri dishes lined with 2% agarose in MFSW. Spontaneous maturation occurs at a low frequency in control oocytes. To test MIH-induced maturation, 10 μL WPRPamide from 1 μM solution in MFSW was added to a final concentration of 100 nM. In some experiments, Br-cAMP from a 20 mM stock in H2O was used at a final concentration of 4 mM. GVBD was scored at 30 minutes, every 5 minutes, depending on experiments.
as §1

[3] = test system: fully grown oocytes isolated from MIHR mutant (n5-23) gonads; experiment: Oocyte maturation assay, MIHR mutant isolated oocytes (GVBD); type: cell-based, Clytia hemisphaerica; conditions: for Oocyte maturation (number) / Percentage of Oocytes maturing: 0,1uM WPRPa, MIH R K.O.
Excerpt: as §2, §3, §1

[4] = WPRPa, pooled n=82, Fisher exact test vs WT significant at p < .01
[5] = 100 nM WPRPamide or 4 mM Br-cAMP
[6] = WPRPa, pooled n=47, Fisher exact test vs MIHR KO significant at p < .01
[7] = WPRPa, pooled n=46, Fisher exact test vs WT significant at p < .01

For `N=C(N)NCCC[C@H](NC(=O)[C@@H]1CCCN1C(=O)[C@@H](N)Cc1c[nH]c2ccccc12)C(=O)N1CCC[C@H]1C(N)=O` [WPRPa] (H-WPRP-NH2; N-terminus assumed), the “Gonads spawning (number)” value ([1]; replicate 1, total 29) was 0, the “Percentage of spawning gonads” value ([1]; replicate 1, total 29) was 0 and the “Gonads spawning (number)” value ([1]; replicate 2, total 29) was 0. The “Percentage of spawning gonads” value ([1]; replicate 2, total 29) was 0, the “Gonads spawning (number)” value ([1]; replicate 3, total 24) was 0 and the “Percentage of spawning gonads” value ([1]; replicate 3, total 24) was 0. The “Percentage of spawning gonads (summary)” value ([1]; WPRPa, MIHR K.O., summary of 3 replicates) was 0, the “Non-spawning gonads, MIHR KO NO” value [1, 4] was 82 and the “Spawning gonads, MIHR KO YES” value [1, 4] was 0. The “oocyte maturation and spawning of MIHR mutant gonads, MIH treatment” value ([1]; isolated MIHR mutant gonads, 100 nM WPRPamide) was “MIHR mutant gonads did not respond; also recorded: No oocyte maturation or spawning was observed”, the “Oocyte maturation (number)” value ([2]; replicate 1, total 13) was 13 and the “Percentage of Oocytes maturing” value ([2]; replicate 1, total 13) was 100.00. The “Oocyte maturation (number)” value ([2]; replicate 2, total 19) was 19, the “Percentage of Oocytes maturing” value ([2]; replicate 2, total 19) was 100.00 and the “Oocyte maturation (number)” value ([2]; replicate 3, total 15.00) was 15. The “Percentage of Oocytes maturing” value ([2]; replicate 3, total 15.00) was 100.00, the “maturation of isolated WT oocytes” value [2, 5] was “triggered maturation of WT oocytes” and the “time to visible GVBD, isolated WT oocytes” value [2, 5] was 20 to 30 min. For the same compound, the “Maturing oocytes, WT YES” value [2, 6] was 47, the “Non-maturing oocytes, WT NO” value [2, 6] was 0 and the “Oocyte maturation (number)” value ([3]; replicate 1, total 14) was 1. The “Percentage of Oocytes maturing” value ([3]; replicate 1, total 14) was 7.14, the “Oocyte maturation (number)” value ([3]; replicate 2, total 11) was 0 and the “Percentage of Oocytes maturing” value ([3]; replicate 2, total 11) was 0.00. For the same compound, the “Oocyte maturation (number)” value ([3]; replicate 3, total 21.00) was 2, the “Percentage of Oocytes maturing” value ([3]; replicate 3, total 21.00) was 9.52 and the “Maturing oocytes, MIHR KO YES” value [3, 7] was 3. The “Non-maturing oocytes, MIHR KO NO” value [3, 7] was 43.
